Laboratory results as given in patent US11950617B2, “Remediation of toxins in biorefinery process streams” (priority 2017, dated 2024).

How the values were obtained:
[1] = Laboratory treatment of corn ethanol syrup with bisulfite in a Parr 4560 reactor; DON measured by NEOGEN VERATOX for DON 2/3 kit
Description: Encouraged by these initial test results, further testing was performed utilizing a design of experiments to determine an equation modeling the effect of time, temperature, and SBS in the treatment of syrup. Syrup from a corn ethanol biorefinery was obtained and processed in the laboratory. All thermal treatments were performed utilizing a Parr 4560 reactor and a combined total of 70 g of syrup and SBS per reaction. Reaction conditions were from 85° C. to 115° C.; for 2 to 6 hours; and 0 to 0.05 g sodium bisulfite per dry gram syrup. The results from this study indicated a correlation between the SBS loading and the reduction in syrup DON. The model predicts a greater than 85% reduction in syrup DON is likely if treatment in a commercial process syrup tank is utilized. It was calculated that at a plant that is currently producing DDGS with 14.5 ppm DON with a 95% reduction in syrup DON would produce DDGS with 4.6 ppm DON.
(§1) Syrup from a corn ethanol biorefinery was obtained and processed in the laboratory. Treatment was performed utilizing a Parr 4560 reactor and a combined total of 70 g of syrup and SBS per reaction. The reaction condition was carried out at 50° C. for 120 minutes and varying amounts of sodium bisulfite per dry gram syrup. The DON was measured by NEOGEN™ VERATOX™ for DON 2/3 kit.
as §1, with “85°” for “50°”, “30” for “120”, “to 180 minutes using 0.048 grams” for “and varying amounts of”
Syrup from a corn ethanol biorefinery was obtained and processed in the laboratory using a Parr 4560 reactor and combined with either 0.048 grams of SBS or ammonium bisulfite per dry gram of syrup. Ammonium bisulfite was a 65% aqueous solution of 95% ammonium bisulfite and 5% potassium bisulfite. The doses of the two reagents used were molar equivalent bisulfite doses. The reaction condition was carried out at 85° C. for 30, 60 and 90 minutes.

[2] = DON analysis of DDGS sources and mixed diets of the pig trial; conditions: treated vs untreated DDGS
Description: A treated mycotoxin in which the DON levels in DON-contaminated DDGS were reduced by the method described in Example 5 (1.5 gallons per minute of a 38% aqueous solution of SBS was supplied continuously into the feed line of the syrup tank) and samples of dried DDGS were collected, analyzed and tested for its effect on pig growth.
A total of 247 growing pigs (55.3±4.6 lb.) were housed at a wean-to-finish facility, randomly allotted to 18 pens (13-14 pigs/pen) containing one 3-hole feeder 2 free-access nipple drinkers, and assigned to one of 3 experimental diets: control, DONDDGS, and treated-DDGS. All experimental diets were corn/soybean meal based containing 30% DDGS (low DON, DON contaminated, and treated DON DDGS, respectively; Table 1).
All diets met or exceeded nutrient requirements for growing pigs based on NRC (2012) and provided ad libitum. Experimental diets were fed for 21 days. Samples of the DDGS and corn used in the diets were analyzed for DON. Samples of the mixed diets were collected at day 0 and 21 and analyzed for proximate analysis and DON.

## O=S([O-])O.[Na+] [SBS, sodium bisulfite]
[1]; 50° C., 120 minutes, varying amounts of sodium bisulfite per dry gram syrup
  DON in the treated syrup as SBS dose increased (FIG. 4): reduced
[1]; 85° C., 30 minutes dwell time, 0.048 grams sodium bisulfite per dry gram syrup
  DON in the treated syrup (FIG. 5): less than 1 ppm
[1]; design-of-experiments model (time, temperature, SBS), treatment in a commercial process syrup tank
  reduction in syrup DON predicted by the model: greater than 85%
[1]; syrup treated with SBS at process temperatures for extended time periods
  DON reduction in the syrup stream: greater than 85%
[2]
  reduction of DON content in DON-DDGS: 37%
